Assay results from PubChem BioAssay (NCI).
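How tested: cells in 96-well plates exposed to compound for 48 hours at five concentrations. GI50 = concentration required for 50% inhibition of growth. TGI: concentration producing complete growth inhibition.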

Legend:
Test in all cases: NCI-60 cell line screen, 48 h
SF-539 CNS = system: SF-539 CNS
786-0 renal = system: 786-0 renal
EKVX NSCLC = system: EKVX NSCLC
LOX IMVI melanoma = system: LOX IMVI melanoma
HOP-62 NSCLC = system: HOP-62 NSCLC
SF-295 CNS = system: SF-295 CNS
SW-620 colon = system: SW-620 colon
SN12C renal = system: SN12C renal
NCI-H23 lung = system: NCI-H23 lung
ACHN renal = system: ACHN renal

Compound | GI50 (SF-539 CNS) [µM] | TGI (SF-539 CNS) [µM] | GI50 (786-0 renal) [µM] | TGI (786-0 renal) [µM] | GI50 (EKVX NSCLC) [µM] | TGI (EKVX NSCLC) [µM] | GI50 (LOX IMVI melanoma) [µM] | TGI (LOX IMVI melanoma) [µM] | GI50 (HOP-62 NSCLC) [µM] | TGI (HOP-62 NSCLC) [µM] | GI50 (SF-295 CNS) [µM] | TGI (SF-295 CNS) [µM] | GI50 (SW-620 colon) [µM] | TGI (SW-620 colon) [µM] | GI50 (SN12C renal) [µM] | TGI (SN12C renal) [µM] | GI50 (NCI-H23 lung) [µM] | TGI (NCI-H23 lung) [µM] | TGI (ACHN renal) [µM] | GI50 (ACHN renal) [µM]
COc1cnc2c(c1)C(=O)c1c-2n(CCCn2ccnc2)c(=O)c2cc(F)ccc12 | 0.0245 | 0.195 | 0.0131 | 0.0563 | 0.167 | > 100 | < 0.01 | 0.128 | < 0.01 | 0.176 | < 0.01 | 0.352 | 0.0221 | 1.01 | < 0.01 | > 100 | 0.0171 | 0.565 | – | –
CCOc1ccc2c(c1)[n+]([O-])c(-c1ccc(Cl)cc1)c(N)[n+]2[O-] | – | > 100 | – | > 100 | – | > 100 | – | – | – | > 100 | – | > 100 | – | > 100 | – | > 100 | – | > 100 | > 100 | –
COc1ccc(-c2nc(-c3nc4ccc(OC)cc4[nH]3)c3ccccn23)cc1 | 9.71 | > 100 | 8.47 | > 100 | – | – | 4.8 | 26 | 5.07 | > 100 | – | – | 4.26 | > 100 | 3.91 | > 100 | 12.7 | > 100 | 36.6 | 3.57
COc1cc(CSc2nc3ccc(C)cc3c(=O)n2-c2ccccc2)cc(OC)c1OC | 2.08 | 9.52 | 6.56 | > 100 | – | – | 4.13 | > 100 | 2.48 | > 100 | 2.41 | 48 | 0.91 | > 100 | 4.56 | > 100 | 6.97 | > 100 | > 100 | 4.78
C=C1C(=O)O[C@H]2[C@H]1CC/C(COC(=O)NCc1cn(C)c3ccccc13)=C\CC[C@@]1(C)O[C@@H]21 | 1.37 | 2.7 | 0.685 | 2.04 | 1.85 | 4.32 | 0.594 | 1.99 | – | – | 3.27 | 13.9 | 0.524 | 1.98 | 1.21 | 3.01 | 2.01 | 4.69 | 1.81 | 0.533
CN[C@@H](C)C(=O)N[C@H](C(=O)N1CCC[C@H]1C(=O)Nc1snnc1-c1ccccc1)C1CCCCC1 | 1.08 | > 38.6 | 62.8 | > 100 | – | – | 35.3 | > 83.3 | 26.5 | > 100 | 34.4 | > 100 | > 100 | > 100 | 74.9 | > 100 | 38.4 | > 100 | > 100 | 52.7
C(#Cc1ccccc1C#Cc1cccs1)c1cccs1 | 71.5 | > 100 | 24.7 | > 100 | 73.1 | > 100 | 23.7 | 53.8 | 77.3 | > 100 | 30.6 | > 100 | 42 | > 100 | – | – | 51.6 | > 100 | > 100 | 78
Nc1c(C(=O)c2cccc(-c3ccncc3)c2)cnn1-c1ccc(F)cc1F | > 16.4 | > 25 | > 25 | > 25 | – | – | 14.3 | > 25 | 9.3 | > 25 | 8.36 | > 25 | 3.12 | > 25 | 12.1 | > 25 | 10.7 | > 25 | > 25 | 12
CN1C(=Nc2ccccc2)SC1=Nc1ccccc1 | – | > 100 | – | > 100 | – | > 100 | – | > 100 | – | > 100 | – | > 100 | – | > 100 | – | – | – | > 100 | > 100 | –
c1ccc2[nH]c(-c3ccc(-c4nccc5c4[nH]c4ccccc45)cc3)nc2c1 | 1.89 | 3.68 | 2.24 | 6.3 | 3.45 | 16.8 | – | – | 2.8 | 10.8 | 1.92 | 4 | 2.79 | 8.48 | – | – | 3.47 | 17.7 | 4.17 | 2.05
Cc1cc2c(cc1C)N(C(=O)CCl)CC(=O)N2 | 3.44 | 10.9 | 3.9 | 15.5 | – | – | 0.858 | 4.85 | 3.3 | 12 | 13.6 | 29.6 | 2.19 | 5.05 | 3.44 | 12 | 3.41 | 16.4 | 3.24 | 1.82
CC/C=C1/C(=O)C=C[C@@H]1C/C=C\CCCC(=O)OC | 3.66 | 13.7 | 2.56 | 6.59 | 4.8 | 16.8 | 0.505 | 1.91 | 3.39 | 11.9 | 2.6 | 6.76 | – | – | 3.08 | 8.58 | 2.17 | 5.86 | 4.57 | 2.27
CN(CCCn1c2c(c3ccccc3c1=O)C(=O)c1ccccc1-2)CCCn1c2c(c3ccccc3c1=O)C(=O)c1ccccc1-2 | 0.181 | 0.75 | 0.0214 | 1.39 | 23.5 | > 100 | – | – | – | – | 0.122 | 9.5 | 0.188 | > 100 | – | – | 0.249 | 5.25 | – | –
COc1ccc2cc(C(=O)/C=C/c3ccc(Cl)cc3Cl)ccc2c1 | 3.98 | 13.7 | 8.13 | 24.3 | 9.79 | 26.4 | – | – | 24 | 50.8 | 35.9 | > 100 | 7.83 | 25.5 | 25.9 | 67.9 | 20.5 | 53.4 | 51.3 | 15.1
